Literature values in patent US6676956B1, “Oil-in-water emulsion for protecting human organs against peroxidation” (Fresenius Kabi Austria GmbH, priority 1998, dated 2004).

Assays:
[1] = test system: skeletal muscles; conditions: 500 mg given directly before reperfusion
[2] = per 1 g of the form
[3] = test system: lipidperoxidation

Compound: CC(=O)Oc1c(C)c(C)c2c(c1C)CCC(C)(CCCC(C)CCCC(C)CCCC(C)C)O2 (racemic) [all-rac-tocopherolacetate]
- increase in lipid peroxides in the serum (TBARS) [1]: prevented
- increase in serum creatine-phosphokinase during the reperfusion phase [1]: suppressed
- ischaemia-reperfusion damage [1]: reduced

Compound: Cc1c(C)c2c(c(C)c1O)CCC(C)(CCCC(C)CCCC(C)CCCC(C)C)O2 (racemic) [all-rac-α-tocopherol, 2,5,7, 8 tetramethyl-2-(4′,8′,12′-trimethyltridecyl)chroman-6-ol]
- effectiveness of 1 g corresponds to that of RRR-α-tocopherol [2]: 0.74 g
- α-tocopherol level in the cell-associated aortic endothelium ([3]; 0.5 mg/day via central vein catheter for 3 days): significant increase

Compound: Cc1c(C)c2c(c(C)c1O)CCC(C)(CCCC(C)CCCC(C)CCCC(C)C)O2 (single isomer, unassigned) [SRR-stereoisomer, 2,5,7, 8 tetramethyl-2-(4′,8′,12′-trimethyltridecyl)chroman-6-ol]
- effectiveness of 1 g corresponds to that of RRR-α-tocopherol [2]: 0.31 g

Compound: vitamin E
- vitamin E concentration in the plasma ([3]; 0.5 mg/day intravenously for 3 days vs 1.0 mg/day orally): significantly higher
- concentration of TBARS in the plasma ([3]; 0.5 mg/day intravenously for 3 days vs control animals): significantly lower
